Measurements: US9309298B2, “Anti-bacterial polypeptides and pathogen specific synthetic antibodies” (priority 2011, dated 2016)
Bridge positions count the residues as written; N and C are the ends. Square brackets hold non-standard residues; d marks the D form. Ends that are not written are not given here. I, II: the chains in the order shown. * marks the point of attachment. StBu = CC(C)(C)S*

Assays:
S. mutans = format: cell-based
P. aeruginosa = format: cell-based
Staphylococcus aureus = assay: Mutant library in vitro inhibition activity, S. aureus; format: cell-based; details: relative growth after 18 hours of co-incubation
Protocol: (§1) A library of 340 mutants of original lytic peptide (killing domain in synbody) was synthesized with single amino acid substitutions. Mutants along with original peptide as positive control were tested in vitro for inhibition activity against S. aureus and Pseudomonas aeruginosa. […] Ratio reflect the improvement in activity as “Mutant[Relative growth]/Orignal[Relative growth].

S. aureus [1] = assay: Solution inhibition assay, S. aureus; format: cell-based; details: negative control synbody
Protocol: The advantage of the synbody “DR-RW” over the single peptides can be noticed in the range 10-25 uM.

human cells = format: cell-based
Source text: FIG. 2. Graph of cytoxicity data of a composition of the invention in human tissue culture studies.
(§2) GAL80 synbody was used as a negative control with no activity against S. aureus. […] Synbody was abbreviated as “SB”.

B. subtilis = format: cell-based
[2] = In vivo characterization: immune response and acute toxicity in mice; parameters: species or system CD1 mice
Source text: FIG. 3. Graph of immune response cytoxicity data of a composition of the invention in CD1 mice.
as §2

S. aureus [3] = format: cell-based
Pseudomonas aeruginosa = assay: Mutant library in vitro inhibition activity, Pseudomonas aeruginosa; format: cell-based; details: relative growth after 18 hours of co-incubation
Protocol: as §1

Substance	ratio, Mutant[Relative growth]/Orignal[Relative growth] (Staphylococcus aureus)	ratio, Mutant[Relative growth]/Orignal[Relative growth] (Pseudomonas aeruginosa)	further results
DRIFHKMQHKPYKIKKRGSC	–	–	Avg MIC ± SD, SM (S. mutans): >100 µM; Avg MIC ± SD, PA (P. aeruginosa): >100 µM
FWRRHKHFKRPHRKHKR [Mut 14]	1.653	–	–
GAL80 synbody: synbody used as a negative control with no activity against S. aureus (peptide 1 GTEKGTSGWLKTGSC; peptide 2 EGEWTEGKLSLRGSC)	–	–	Activity against S. aureus (S. aureus [1]): no activity
I: DRIFHKMQHKPYKIKKRGSGGGKC(StBu)-NH2 / II: RWRRHKHFKRPHRKHKRGSG (amide I:23-II:C) [Synbody]	–	–	Cytotoxic activity (human cells): no cytotoxic activity; Avg MIC ± SD, SM (S. mutans): >100 µM; Avg MIC ± SD, BS (B. subtilis): 14 ± 1.1 µM; Avg MIC ± SD, PA (P. aeruginosa): 22 ± 1.8 µM; Acute toxicity ([2]; 500 ug dose): no immune response or acute toxicity; Immune response ([2]; 500 ug dose, FIG. 3): no immune response; Level of IgG, PBS versus synbody injected mice ([2]; FIG. 3): no difference detected; Avg MIC ± SD, SA (S. aureus [3]): 14 ± 0.8 µM
LWRRHKHFKRPHRKHKR [Mut 11]	1.58	–	–
PWRRHKHFKRPHRKHKR [Mut 15]	1.658	–	–
RLRRHKHFKRPHRKHKR [Mut 31]	1.633	–	–
RRRRHKHFKRPHRKHKR [Mut 22]	6.1	2.073	–
RWRFHKHFKRPHRKHKR [Mut 74]	–	1.017	–
RWRRAKHFKRPHRKHKR [Mut 81]	1.525	–	–
RWRRFKHFKRPHRKHKR [Mut 94]	–	1.211	–
RWRRHFHFKRPHRKHKR [Mut 114]	–	10.95	–
RWRRHGHFKRPHRKHKR [Mut 108]	–	1.191	–
RWRRHHHFKRPHRKHKR [Mut 109]	–	1.395	–
RWRRHIHFKRPHRKHKR [Mut 110]	–	4.387	–
RWRRHKAFKRPHRKHKR [Mut 121]	–	2.297	–
RWRRHKHFKRDHRKHKR [Mut 204]	–	2.107	–
RWRRHKHFKRFHRKHKR [Mut 214]	–	1.134	–
RWRRHKHFKRMHRKHKR [Mut 213]	–	1.185	–
RWRRHKHFKRPHRKHFR [Mut 314]	1.497	–	–
RWRRHKHFKRPHRKHKF [Mut 334]	2.37	–	–
RWRRHKHFKRPHRKHKK [Mut 332]	2.438	–	–
RWRRHKHFKRPHRKHKRGSC	–	–	Avg MIC ± SD, SM (S. mutans): >100 µM; Avg MIC ± SD, BS (B. subtilis): 20 ± 0.3 µM; Avg MIC ± SD, PA (P. aeruginosa): 27 ± 2.3 µM; Avg MIC ± SD, SA (S. aureus [3]): 28 ± 1.5 µM

Substance	ratio, Mutant[Relative growth]/Orignal[Relative growth] (Staphylococcus aureus)	ratio, Mutant[Relative growth]/Orignal[Relative growth] (Pseudomonas aeruginosa)	further results
RWRRHKHFKRPHRKTKR [Mut 297]	2.339	–	–
RWRRHKHFKRPHRKVKR [Mut 300]	1.453	–	–
RWRRHKHFKRPYRKHKR [Mut 239]	2.12	–	–
RWRRHKHFKRRHRKHKR [Mut 202]	–	1.3565	–
RWRRHKHFRRPHRKHKR [Mut 162]	2.125	–	–
RWRRHKHKKRPHRKHKR [Mut 152]	2.049	–	–
RWRRHKHLKRPHRKHKR [Mut 151]	1.312	–	–
RWRRHKHMKRPHRKHKR [Mut 153]	2.293	–	–
RWRRHKHPKRPHRKHKR [Mut 155]	2.359	–	–
RWRRHKRFKRPHRKHKR [Mut 122]	17.45	3.121	–
RWRRHKVFKRPHRKHKR [Mut 140]	1.658	–	–
RWRRHKWFKRPHRKHKR [Mut 138]	–	1.315	–
RWRRHKYFKRPHRKHKR [Mut 139]	2.136	1.164	–
RWRRHKd-KFKRPHRKHKR (RWRRHK[dK]FKRPHRKHKR) [Mut 125]	1.593	–	–
RWRRHLHFKRPHRKHKR [Mut 111]	–	1.71	–
RWRRHRHFKRPHRKHKR [Mut 102]	–	1.077	–
RWRRHVHFKRPHRKHKR [Mut 120]	–	3.684	–
RWRRIKHFKRPHRKHKR [Mut 90]	1.747	–	–
RWRRMKHFKRPHRKHKR [Mut 93]	–	1.035	–
RWRRNKHFKRPHRKHKR [Mut 83]	13.15	–	–
RWRRPKHFKRPHRKHKR [Mut 95]	9.077	–	–
RWRRWKHFKRPHRKHKR [Mut 98]	–	1.183	–
d-KWRRHKHFKRPHRKHKR ([dK]WRRHKHFKRPHRKHKR; not fully specified (some residues)) [Mut 5]	1.308	–	–
